Article PMC8518114, “Safety, tolerability and pharmacokinetics of emodepside, a potential novel treatment for onchocerciasis (river blindness), in healthy male subjects” (British Journal of Clinical Pharmacology, 2021)

Tested on: healthy male subjects
Test: Safety: treatment-emergent adverse events, MAD study
Format: in vivo, human
Description: Safety was assessed by monitoring adverse events (AEs) throughout the studies that were coded using the standard Medical Dictionary for Regulatory Activities (MedDRA) dictionary (versions 19.0 [SAD part 1], 20.0 [SAD part 2] and 21.1 [MAD]). Other safety monitoring included 12‐lead electrocardiography recordings, measurement of vital signs (systolic and diastolic blood pressure and heart rate), physical and neurological (Hamilton depression rating scale[17] and Beck depression inventory‐II fastscreen[18] [SAD only], mental status examination, cranial nerves assessment and motor system examination, sensation to light touch, coordination/cerebellar function assessment, Romberg's test, gait test, daytime sleepiness assessment [SAD and MAD studies]) examinations, haematology, biochemistry and urinalysis. To minimise risks in the SAD and MAD studies, subjects were dosed sequentially using sentinels in each cohort (1 IP, 1 placebo) as per European Medicines Agency guidelines.[19] If the previous dose was well tolerated, with no safety concerns, dose escalation was decided by the Safety Review Group after reviewing safety and PK data from all available cohorts. Moreover, treatment with the highest dose in the SAD study was repeated (cohort 10) for regular ophthalmological evaluations (assessments available as supplementary information) to better characterise visual AEs observed in the SAD study. Regular ophthalmological assessments were also performed in the MAD study.

CC(C)C[C@H]1C(=O)O[C@H](Cc2ccc(N3CCOCC3)cc2)C(=O)N(C)[C@@H](CC(C)C)C(=O)O[C@H](C)C(=O)N(C)[C@@H](CC(C)C)C(=O)O[C@H](Cc2ccc(N3CCOCC3)cc2)C(=O)N(C)[C@@H](CC(C)C)C(=O)O[C@H](C)C(=O)N1C [emodepside]
Any TEAE (LSF 5 mg OD n = 6): 5 (83.3) n (%) | TEAE: Eye disorders (LSF 5 mg OD n = 6): 3 (50.0) n (%) | TEAE: Gastrointestinal disorders (LSF 5 mg OD n = 6): 2 (33.3) n (%) | TEAE: General disorders and administration site disorders (LSF 5 mg OD n = 6): 1 (16.7) n (%) | TEAE: Immune system disorders (LSF 5 mg OD n = 6): 0 n (%) | TEAE: Infections and infestations (LSF 5 mg OD n = 6): 4 (66.7) n (%) | TEAE: Injury, poisoning and procedural complications (LSF 5 mg OD n = 6): 0 n (%) | TEAE: Investigations (LSF 5 mg OD n = 6): 0 n (%) | TEAE: Metabolism and nutrition disorders (LSF 5 mg OD n = 6): 0 n (%) | TEAE: Musculoskeletal and connective tissue disorders (LSF 5 mg OD n = 6): 2 (33.3) n (%) | TEAE: Nervous system disorders (LSF 5 mg OD n = 6): 2 (33.3) n (%) | TEAE: Psychiatric disorders (LSF 5 mg OD n = 6): 2 (33.3) n (%) | TEAE: Respiratory, thoracic and mediastinal disorders (LSF 5 mg OD n = 6): 1 (16.7) n (%) | TEAE: Skin and subcutaneous tissue disorders (LSF 5 mg OD n = 6): 1 (16.7) n (%) | TEAE: Surgical and medicinal procedures (LSF 5 mg OD n = 6): 0 n (%) | Any TEAE (LSF 10 mg BID n = 6): 6 (100) n (%) | TEAE: Eye disorders (LSF 10 mg BID n = 6): 3 (50.0) n (%) | TEAE: Gastrointestinal disorders (LSF 10 mg BID n = 6): 0 n (%) | TEAE: General disorders and administration site disorders (LSF 10 mg BID n = 6): 1 (16.7) n (%) | TEAE: Immune system disorders (LSF 10 mg BID n = 6): 1 (16.7) n (%) | TEAE: Injury, poisoning and procedural complications (LSF 10 mg BID n = 6): 1 (16.7) n (%) | TEAE: Investigations (LSF 10 mg BID n = 6): 1 (16.7) n (%) | TEAE: Metabolism and nutrition disorders (LSF 10 mg BID n = 6): 0 n (%) | TEAE: Musculoskeletal and connective tissue disorders (LSF 10 mg BID n = 6): 1 (16.7) n (%) | TEAE: Nervous system disorders (LSF 10 mg BID n = 6): 0 n (%) | TEAE: Psychiatric disorders (LSF 10 mg BID n = 6): 0 n (%) | TEAE: Respiratory, thoracic and mediastinal disorders (LSF 10 mg BID n = 6): 0 n (%) | TEAE: Skin and subcutaneous tissue disorders (LSF 10 mg BID n = 6): 0 n (%) | TEAE: Surgical and medicinal procedures (LSF 10 mg BID n = 6): 0 n (%) | Any TEAE (LSF 10 mg OD n = 6): 6 (100.0) n (%) | TEAE: Eye disorders (LSF 10 mg OD n = 6): 1 (16.7) n (%) | TEAE: Gastrointestinal disorders (LSF 10 mg OD n = 6): 0 n (%) | TEAE: General disorders and administration site disorders (LSF 10 mg OD n = 6): 1 (16.7) n (%) | TEAE: Immune system disorders (LSF 10 mg OD n = 6): 0 n (%) | TEAE: Infections and infestations (LSF 10 mg OD n = 6): 4 (66.7) n (%) | TEAE: Injury, poisoning and procedural complications (LSF 10 mg OD n = 6): 0 n (%) | TEAE: Investigations (LSF 10 mg OD n = 6): 0 n (%) | TEAE: Metabolism and nutrition disorders (LSF 10 mg OD n = 6): 1 (16.7) n (%) | TEAE: Musculoskeletal and connective tissue disorders (LSF 10 mg OD n = 6): 2 (33.3) n (%) | TEAE: Nervous system disorders (LSF 10 mg OD n = 6): 0 n (%) | TEAE: Psychiatric disorders (LSF 10 mg OD n = 6): 1 (16.7) n (%) | TEAE: Respiratory, thoracic and mediastinal disorders (LSF 10 mg OD n = 6): 0 n (%) | TEAE: Skin and subcutaneous tissue disorders (LSF 10 mg OD n = 6): 1 (16.7) n (%) | TEAE: Surgical and medicinal procedures (LSF 10 mg OD n = 6): 1 (16.7) n (%)
